Experimental findings from US5098921A, “Nitro-substituted aromatic or hetero-aromatic compounds for use in cancer treatment” (National Research Development Corporation, priority 1987, dated 1992) are described below.

Each structure is given as a SMILES string. Where two headings read alike, the source gives them in different places.

The subject of data set [1] is cells. The experiment in a line: Toxicity to cells, 3 hours at 37° C., in air and in N2. Format: cell-based. The conditions noted are these: for CC90: read-out: CN2; for CAir/CN2: ratio of toxic concentrations, air to N2, 180 min. As for the experimental part:
(§1) ^(a) Toxicity is 3 hours at 37° C. Concentrations are those
(§2) required for a surviving fraction of 10^-1. Drugs were made up in ful
(§3) growth medium (buffered with bicarbonate) just before addition to cells.

Assay in data set [2]: as above
Format: cell-based. The settings on record: air; concentration required for a surviving fraction of 10^-1; 3 hours at 37° C.; full growth medium (bicarbonate); read-out: CAir. As for the experimental part: as §1, §2, §3

The test system of the next data set is KHT tumour cells. The experiment in a line: Survival of KHT tumour cells after sensitiser i.p. plus 10 Gy X-rays (KHT tumour implanted subcutaneously in C3H mice). Format: in vivo. As for the experimental part: In Table 2 comparison is made with 1-(2-nitro-1-imidazolyl)-3-(1-aziridino)-2-propanol (RSU-1069). All compounds were administered in phosphate buffered saline (PBS) at pH 7.4 except RB-6145 which was administered in PBS at pH 5.4.
The maximum does used was the maximum tolerated dose (MTD).

Data set [3] deals with cells. In words: Sensitisation of cells, C1.6 (drugs made up in PBS at pH 7.4). The class given is cell-based. The settings on record: drugs made up in PBS at pH 7.4 just before addition to cells. The text has this: ^(b) Drugs made up in PBS at pH 7.4 just before addition to cells.
The next data set has as its system KHT tumour. The experiment in a line: In vivo sensitisation, scored against RSU1069 and MISO. Further details: species or system C3H mice; key to the marks not given beside the values. The settings on record: scoring system relative to RSU1069 and MISO. As to the method: (§4) (a) C3H mice in which the KHT tumour had been implanted subcutaneously were administered RB-6145 (Example 2) intraperitoneally before treatment with radiation. The time before such treatment at which the drug was administered was such that maximum enhancement was effected. The results of such treatment are set out in Table 1 with comparison to misonidazole (MISO), etanidazole (SR 2508) and pimonidazole (Ro 03-8799). In Table 2 comparison is made with 1-(2-nitro-1-imidazolyl)-3-(1-aziridino)-2-propanol (RSU-1069). All compounds were administered in phosphate buffered saline (PBS) at pH 7.4 except RB-6145 which was administered in PBS at pH 5.4.

The nature of data set [4]: Maximum tolerated dose (MTD). The settings on record: for MTD: mouse, in vivo, ip, intraperitoneal, b203: maximum dose used was the MTD, read-out: maximum tolerated dose (MTD) = maximum dose used in Table 2. Format: in vivo, C3H mice. As to the method:
as §4
The surviving fraction for 10 Gy alone is 3×10^-2. The maximum does used was the maximum tolerated dose (MTD).

Setting [5] is: N2, concentration required for a surviving fraction of 10^-1, 3 hours at 37° C., full growth medium (bicarbonate).
[6] abbreviates: Table 1, sensitiser at a dose of 200 mg/kg and 10 Gy X-rays, NONE = 1.0.
Setting [7] is: Table 1, sensitiser at a dose of 200 mg/kg and 10 Gy X-rays, intraperitoneal.

In general, MTD refers to the highest dose tested that stayed within the study's limit of toxicity.

With `O=[N+]([O-])c1nccn1CC(O)CNCCF` (stereo not drawn) [RB-6159, 1-(2-Nitro-1-imidazolyl)-3-(2-fluoroethylamino)-2-propanol], in the data set with cells [1] (setting [5]), the CC90 worked out at 2500 µM. Besides, the CAir/CN2 with cells [1] was determined as 14. The CC90 at 3 h in data set [2] is 35000 µM.
As for `O=C(Cn1ccnc1[N+](=O)[O-])NCCO` [SR 2508, etanidazole], the enhancement ratio in the data set with KHT tumour cells (setting [6]) stood at 1.6. Moreover, the surviving fraction in the data set with KHT tumour cells (setting [7]) is given as 1.1 × 10^-2.
On to `COCC(O)Cn1ccnc1[N+](=O)[O-]` (stereo not drawn) [MISO, misonidazole], for which the enhancement ratio in the data set with KHT tumour cells (mouse, in vivo, 200 mg/kg) came to 1.5. In addition, in the data set on KHT tumour cells (mouse, in vivo, ip, 200 mg/kg), the surviving fraction is listed as 1.2 × 10^-2.
`O=[N+]([O-])c1nccn1CC(O)CNCCCl` (stereo not drawn) [RB-6144, 1-(2-Nitro-1-imidazolyl)-3-(2-chloroethylamino)-2-propanol]: the EC (enhancement ratio 1.6) in the data set with cells [3] amounted to 250 µM. In addition, in the data set on cells [1] (3 h), the CC90 is 350 µM. The CAir/CN2 with cells [1] stood at 15. Also, the CC90 at 3 h in data set [2] is 5000 µM. In the data set with KHT tumour, the in vivo sensitisation result is on record as “++”.
`O=[N+]([O-])c1nccn1CC(O)CNCCBr` (stereo not drawn) [RB-6145, 1-(2-Nitro-1-imidazolyl)-3-(2-bromoethylamino)-2-propanol]: the “doses that can be used compared with RSU-1069” value in data set [4] (Table 2) is “Much higher doses of RB-6145 can be used”. In addition, in data set [4], the MTD turned out to be 300 mg/kg. Moreover, in the data set with cells [3], the EC (enhancement ratio 1.6) was found to be 150 µM. In addition, in the data set on cells [1] (3 h), the CC90 was 90 µM. For the same compound, in the data set on cells [1], the CAir/CN2 is reported as 25. The CC90 at 3 h in data set [2] is 2300 µM. In addition, in the data set on KHT tumour cells (10 Gy X-rays), the “dose-for-dose sensitisation compared with RSU-1069” value is reported as “on a dose-for-dose basis it is the same as RSU-1069 as a sensitiser”. Besides, in the data set on KHT tumour cells (setting [6]), the enhancement ratio turned out to be 2.7. Further, the surviving fraction in the data set on KHT tumour cells (setting [7]) is 1.8 × 10^-3; with KHT tumour cells (Table 2, RB-6145 0.13 mmol kg^-1 (50 mg/kg) and 10 Gy X-rays), 7.6 × 10^-3; with KHT tumour cells (Table 2, RB-6145 0.27 mmol kg^-1 (100 mg/kg) and 10 Gy X-rays) it was 5.2 × 10^-3; with KHT tumour cells (Table 2, RB-6145 0.53 mmol kg^-1 (200 mg/kg) and 10 Gy X-rays) it was 1.8 × 10^-3; in the data set with KHT tumour cells (Table 2, RB-6145 0.80 mmol kg^-1 (300 mg/kg) and 10 Gy X-rays, 10 Gy alone 3×10^-2) it was 1.4 × 10^-3. For the same compound, in the data set on KHT tumour, the in vivo sensitisation result is recorded as “++++”.
For the compound `O=[N+]([O-])c1nccn1CC(O)CN1CCCCC1` (stereo not drawn) [Ro03-8799, pimonidazole], in the data set with KHT tumour cells (setting [6]), the enhancement ratio is recorded as 1.0. For the same compound, the surviving fraction in the data set on KHT tumour cells (setting [7]) is listed as 3 × 10^-2.
Regarding `O=[N+]([O-])c1nccn1CC(O)CNCCO` (stereo not drawn) [RSU-1137, 1-(2-nitro-1-imidazolyl)-3-(2-hydroxyethylamino)-2-propanol, reference compound], in the data set with cells [3], the EC (enhancement ratio 1.6) turned out to be 450 µM. In the data set with cells [1] (setting [5]), the CC90 worked out at 3500 µM. Moreover, the CAir/CN2 with cells [1] was 20. For the same compound, the CC90 at 3 h in data set [2] is 70000 µM. Also, the in vivo sensitisation result in the data set with KHT tumour is reported as “++”.
As for `O=[N+]([O-])c1nccn1CC(O)CNCCI` (stereo not drawn) [RB-6146, 1-(2-Nitro-1-imidazolyl)-3-(2-iodoethylamino)-2-propanol], the EC (enhancement ratio 1.6) in the data set with cells [3] is 300 µM. Besides, the CC90 in the data set with cells [1] (3 h) amounted to 80 µM. Also, the CAir/CN2 in the data set on cells [1] is 30. Besides, the CC90 at 3 h in data set [2] turned out to be 2400 µM.
Turning to `O=[N+]([O-])c1nccn1CC(O)CN1CC1` (stereo not drawn) [RSU-1069, 1-(2-nitro-1-imidazolyl)-3-(1-aziridino)-2-propanol], the MTD in data set [4] amounted to 80 mg/kg. For the same compound, the surviving fraction with KHT tumour cells (8 mg/kg) was 7.6 × 10^-3; in the data set with KHT tumour cells (30 mg/kg) it was 4.0 × 10^-3; in the data set with KHT tumour cells (50 mg/kg), 3.2 × 10^-3; in the data set on KHT tumour cells (80 mg/kg) it was 1.6 × 10^-3.
